{
  "source": "paper PMC10620772",
  "about": "“Design, synthesis, and biological evaluation of new pyrimidine-5-carbonitrile derivatives as novel anti-cancer, dual EGFR^WT/COX-2 inhibitors with docking studies” (RSC Advances, 2023)",
  "assay_type_in_all_cases": "cell-based, human",
  "key": {"CCRF-CEM": {"test_system": "CCRF-CEM", "test": "NCI60 antitumor screening"}, "SK-MEL-28": {"test_system": "SK-MEL-28", "test": "NCI60 antitumor screening"}, "IGROV1": {"test_system": "IGROV1", "test": "NCI60 antitumor screening"}, "COLO 205": {"test_system": "COLO 205", "test": "NCI60 antitumor screening"}, "HT29": {"test_system": "HT29", "test": "NCI60 antitumor screening"}, "NCI-H460": {"test_system": "NCI-H460", "test": "NCI60 antitumor screening"}, "HOP-62": {"test_system": "HOP-62", "test": "NCI60 antitumor screening"}, "SNB-19": {"test_system": "SNB-19", "test": "NCI60 antitumor screening"}, "M14": {"test_system": "M14", "test": "NCI60 antitumor screening"}, "HL-60(TB)": {"test_system": "HL-60(TB)", "test": "NCI60 antitumor screening"}, "ACHN": {"test_system": "ACHN", "test": "NCI60 antitumor screening"}, "DU-145": {"test_system": "DU-145", "test": "NCI60 antitumor screening"}, "RPMI-8226": {"test_system": "RPMI-8226", "test": "NCI60 antitumor screening"}, "NCI60 cell lines panel": {"test_system": "NCI60 cell lines panel", "test": "NCI60 antitumor screening, full panel", "summary_of_the_method": "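Percent growth inhibition (GI%) was recorded for each of the NCI60 lines, spanning leukaemia, lung, colon, CNS, melanoma, ovarian, renal, prostate and breast cancers, after exposure to compounds at one concentration, 10 μM.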"}, "786–0": {"test_system": "786–0", "test": "NCI60 antitumor screening"}, "BT-549": {"test_system": "BT-549", "test": "NCI60 antitumor screening"}},
  "note": "Where “and” joins values, the source holds several entries; their conditions need not be identical. Equal values may be shown once. Entries after “also recorded” stand apart in the source; their conditions may differ. Read-outs that look alike come from different tables or passages of the source.",
  "data": [
    {"smiles": "N#Cc1c(-c2ccc(F)cc2)nc(SCc2ccccc2)nc1N1CCNCC1", "note": "[4e, 2-(Benzylthio)-4-(4-fluorophenyl)-6-(piperazin-1-yl) pyrimidine-5-carbonitrile]", "values": [
      {"measurement": "inhibition at 10 µM", "setting": "CCRF-CEM; Homo sapiens, 10 μM single dose, CCRF-CEM (leukaemia), read-out: growth inhibition percent (GI%)", "value": "> 100", "unit": "%"},
      {"measurement": "TGI", "setting": "CCRF-CEM; five-dose", "value": 31.00, "unit": "µM"},
      {"measurement": "GI50", "setting": "SK-MEL-28; Homo sapiens, SK-MEL-28, five-dose", "value": 16.3, "unit": "µM"},
      {"measurement": "CC50", "setting": "SK-MEL-28; Homo sapiens, SK-MEL-28, five-dose, read-out: LC50 (the source's name)", "value": 56.3, "unit": "µM"},
      {"measurement": "inhibition at 10 µM", "setting": "SK-MEL-28; Homo sapiens, 10 μM single dose, SK-MEL-28 (melanoma), read-out: growth inhibition percent (GI%)", "value": "> 100", "unit": "%"},
      {"measurement": "TGI", "setting": "SK-MEL-28; five-dose", "value": 30.30, "unit": "µM"},
      {"measurement": "inhibition at 10 µM", "setting": "IGROV1; Homo sapiens, IGROV-1, 10 μM single dose, IGROV1 (ovarian cancer), read-out: growth inhibition percent (GI%)", "value": "> 100", "unit": "%"},
      {"measurement": "GI50", "setting": "IGROV1; Homo sapiens, IGROV-1, five-dose", "value": 14.7, "unit": "µM"},
      {"measurement": "CC50", "setting": "IGROV1; Homo sapiens, IGROV-1, five-dose, read-out: LC50 (the source's name)", "value": 56.7, "unit": "µM"},
      {"measurement": "TGI", "setting": "IGROV1; five-dose", "value": 28.90, "unit": "µM"},
      {"measurement": "IC50", "setting": "COLO 205; Homo sapiens, COLO 205", "value": 1.66, "unit": "µM"},
      {"measurement": "GI50", "setting": "COLO 205; Homo sapiens, COLO 205, five-dose", "value": 1.66, "unit": "µM"},
      {"measurement": "CC50", "setting": "COLO 205; Homo sapiens, COLO 205, five-dose, read-out: LC50 (the source's name)", "value": 6.04, "unit": "µM"},
      {"measurement": "inhibition at 10 µM", "setting": "COLO 205; Homo sapiens, 10 μM single dose, COLO 205 (colon cancer), read-out: growth inhibition percent (GI%)", "value": "> 100", "unit": "%"},
      {"measurement": "TGI", "setting": "COLO 205; five-dose", "value": 3.17, "unit": "µM"},
      {"measurement": "inhibition at 10 µM", "setting": "HT29; Homo sapiens, HT-29, 10 μM single dose, HT29 (colon cancer), read-out: growth inhibition percent (GI%)", "value": "> 100", "unit": "%"},
      {"measurement": "GI50", "setting": "HT29; Homo sapiens, HT-29, five-dose", "value": 3.3, "unit": "µM"},
      {"measurement": "CC50", "setting": "HT29; Homo sapiens, HT-29, five-dose, read-out: LC50 (the source's name)", "value": 36.6, "unit": "µM"},
      {"measurement": "TGI", "setting": "HT29; five-dose", "value": 10.50, "unit": "µM"},
      {"measurement": "GI50", "setting": "NCI-H460; Homo sapiens, NCI-H460, five-dose", "value": 9.2, "unit": "µM"},
      {"measurement": "CC50", "setting": "NCI-H460; Homo sapiens, NCI-H460, five-dose, read-out: LC50 (the source's name)", "value": 53.9, "unit": "µM"},
      {"measurement": "inhibition at 10 µM", "setting": "NCI-H460; Homo sapiens, 10 μM single dose, NCI-H460 (non-small cell lung cancer), read-out: growth inhibition percent (GI%)", "value": "> 100", "unit": "%"},
      {"measurement": "TGI", "setting": "NCI-H460; five-dose", "value": 22.90, "unit": "µM"},
      {"measurement": "GI50", "setting": "HOP-62; Homo sapiens, HOP-62, five-dose", "value": 13.2, "unit": "µM"},
      {"measurement": "CC50", "setting": "HOP-62; Homo sapiens, HOP-62, five-dose, read-out: LC50 (the source's name)", "value": 59.9, "unit": "µM"},
      {"measurement": "inhibition at 10 µM", "setting": "HOP-62; Homo sapiens, 10 μM single dose, HOP-62 (non-small cell lung cancer), read-out: growth inhibition percent (GI%)", "value": "> 100", "unit": "%"},
      {"measurement": "TGI", "setting": "HOP-62; five-dose", "value": 28.10, "unit": "µM"},
      {"measurement": "GI50", "setting": "SNB-19; Homo sapiens, SNB-19, five-dose", "value": 14.2, "unit": "µM"},
      {"measurement": "CC50", "setting": "SNB-19; Homo sapiens, SNB-19, five-dose, read-out: LC50 (the source's name)", "value": 60.6, "unit": "µM"},
      {"measurement": "inhibition at 10 µM", "setting": "SNB-19; Homo sapiens, 10 μM single dose, SNB-19 (CNS cancer), read-out: growth inhibition percent (GI%)", "value": "> 100", "unit": "%"},
      {"measurement": "TGI", "setting": "SNB-19; five-dose", "value": 29.30, "unit": "µM"},
      {"measurement": "GI50", "setting": "M14; Homo sapiens, M14, five-dose", "value": 12, "unit": "µM"},
      {"measurement": "CC50", "setting": "M14; Homo sapiens, M14, five-dose, read-out: LC50 (the source's name)", "value": 51.4, "unit": "µM"},
      {"measurement": "inhibition at 10 µM", "setting": "M14; Homo sapiens, 10 μM single dose, M14 (melanoma), read-out: growth inhibition percent (GI%)", "value": "> 100", "unit": "%"},
      {"measurement": "TGI", "setting": "M14; five-dose", "value": 24.80, "unit": "µM"},
      {"measurement": "GI50", "setting": "HL-60(TB); Homo sapiens, HL-60, five-dose", "value": 4.5, "unit": "µM"},
      {"measurement": "CC50", "setting": "HL-60(TB); Homo sapiens, HL-60, five-dose, read-out: LC50 (the source's name)", "value": 46.5, "unit": "µM"},
      {"measurement": "inhibition at 10 µM", "setting": "HL-60(TB); Homo sapiens, 10 μM single dose, HL-60(TB) (leukaemia), read-out: growth inhibition percent (GI%)", "value": "> 100", "unit": "%"},
      {"measurement": "TGI", "setting": "HL-60(TB); five-dose", "value": 17.30, "unit": "µM"},
      {"measurement": "GI50", "setting": "ACHN; Homo sapiens, ACHN, five-dose", "value": 14, "unit": "µM"},
      {"measurement": "LC50", "setting": "ACHN; Homo sapiens, ACHN, five-dose", "value": 54, "unit": "µM"},
      {"measurement": "inhibition at 10 µM", "setting": "ACHN; Homo sapiens, 10 μM single dose, ACHN (renal cancer), read-out: growth inhibition percent (GI%)", "value": "> 100", "unit": "%"},
      {"measurement": "TGI", "setting": "ACHN; five-dose", "value": 27.50, "unit": "µM"},
      {"measurement": "GI50", "setting": "DU-145; Homo sapiens, DU-145, five-dose", "value": 15, "unit": "µM"},
      {"measurement": "CC50", "setting": "DU-145; Homo sapiens, DU-145, five-dose, read-out: LC50 (the source's name)", "value": 56, "unit": "µM"},
      {"measurement": "inhibition at 10 µM", "setting": "DU-145; Homo sapiens, DU-145, read-out: growth inhibition percent (GI%)", "value": "> 100", "unit": "%"},
      {"measurement": "TGI", "setting": "DU-145; five-dose", "value": 29.00, "unit": "µM"},
      {"measurement": "GI50", "setting": "RPMI-8226; Homo sapiens, RPMI-8226, five-dose", "value": 3.99, "unit": "µM"},
      {"measurement": "CC50", "setting": "RPMI-8226; Homo sapiens, RPMI-8226, five-dose, read-out: LC50 (the source's name)", "value": 65.4, "unit": "µM"},
      {"measurement": "inhibition at 10 µM", "setting": "RPMI-8226; Homo sapiens, 10 μM single dose, RPMI-8226 (leukaemia), read-out: growth inhibition percent (GI%)", "value": "> 100", "unit": "%"},
      {"measurement": "TGI", "setting": "RPMI-8226; five-dose", "value": 17.50, "unit": "µM"},
      {"measurement": "One-dose activity over the NCI60 panel", "setting": "NCI60 cell lines panel; 10 μM", "value": "lethal effect to all cancer subpanels; also recorded: Lethal to all NCI60 cell lines"},
      {"measurement": "inhibition at 10 µM", "setting": "NCI60 cell lines panel; Homo sapiens, 10 μM single dose, mean over NCI60 cell lines, read-out: Mean growth inhibition percent (GI%)", "value": "> 100", "unit": "%"},
      {"measurement": "GI50", "setting": "NCI60 cell lines panel; Homo sapiens, average of all cell lines, read-out: Full panel MG-MID (GI50)", "value": 10.7, "unit": "µM"},
      {"measurement": "GI50", "setting": "NCI60 cell lines panel; Homo sapiens, five-dose, read-out: GI50 range, leukemia and colon cancer cell lines", "value": "1.77 to 17.1", "unit": "µM"},
      {"measurement": "CC50", "setting": "NCI60 cell lines panel; Homo sapiens, five-dose, read-out: LC50 range over examined cell lines", "value": "5 to 69", "unit": "µM"},
      {"measurement": "Full panel MG-MID (TGI)", "setting": "NCI60 cell lines panel; average of all cell lines", "value": "23.60 μM and 23.60 ^e μM"},
      {"measurement": "GI50", "setting": "786–0; Homo sapiens, 786-0, five-dose", "value": 11, "unit": "µM"},
      {"measurement": "LC50 (concentration killing 50% of tumour cells)", "setting": "786–0; Homo sapiens, 786-0, five-dose", "value": 58.9, "unit": "µM"},
      {"measurement": "inhibition at 10 µM", "setting": "786–0; Homo sapiens, 10 μM single dose, 786–0 (renal cancer), read-out: growth inhibition percent (GI%)", "value": "> 100", "unit": "%"},
      {"measurement": "TGI", "setting": "786–0; five-dose", "value": 25.40, "unit": "µM"},
      {"measurement": "GI50", "setting": "BT-549; Homo sapiens, BT-549, five-dose", "value": 13, "unit": "µM"},
      {"measurement": "CC50", "setting": "BT-549; Homo sapiens, BT-549, five-dose, read-out: LC50 (the source's name)", "value": 53.6, "unit": "µM"},
      {"measurement": "inhibition at 10 µM", "setting": "BT-549; Homo sapiens, 10 μM single dose, BT-549 (breast cancer), read-out: growth inhibition percent (GI%)", "value": "> 100", "unit": "%"},
      {"measurement": "TGI", "setting": "BT-549; five-dose", "value": 26.40, "unit": "µM"}
    ]}
  ]
}
